Data: ChEMBL document CHEMBL3352572, “Design, synthesis and antioxidant activity evaluation of novel β-elemene derivatives” (Bioorg Med Chem Lett, 2014)

Legend:
[1] = system: HUVEC; assay: Antioxidant activity in HUVEC assessed as suppression of ROS production by measuring fluorescent intensity index at 5 uM pre-incubated for 24 hrs before H2O2 stimulation for 2 hrs by DCF dye based fluorimetric assay; assay type: functional, Homo sapiens
[2] = system: HUVEC; assay: Antioxidant activity in HUVEC assessed as suppression of ROS production by measuring fluorescent intensity index at 100 uM pre-incubated for 24 hrs before H2O2 stimulation for 2 hrs by DCF dye based fluorimetric assay; assay type: functional, cell-based; details: Homo sapiens
[3] = system: HUVEC; assay: Cytotoxicity against HUVEC assessed as cell death 1000 uM after 24 hrs by MTT assay; assay type: cell-based; details: human
[4] = system: HUVEC; assay: Cytoprotective activity in H2O2-treated HUVEC assessed as cell survival at 50 uM pre-incubated for 24 hrs before H2O2 stimulation for 2 hrs by MTT assay (reference value: 66.91%); assay type: functional; details: Homo sapiens, read-out: Survival
[5] = Cytotoxicity against HUVEC assessed as cell survival at 0.5 to 50 uM after 24 hrs by MTT assay; assay type: cell-based; details: human, HUVEC cells; read-out: Survival
[6] = system: HUVEC; assay: Reduction in MDA level in H2O2-treated HUVEC at 0.5 to 50 uM pre-incubated for 24 hrs before H2O2 stimulation for 2 hrs; assay type: functional, cell-based; details: Homo sapiens
[7] = system: HUVEC; assay: Antioxidant activity in HUVEC assessed as suppression of ROS production at 0.5 uM pre-incubated for 24 hrs before H2O2 stimulation for 2 hrs by DCF dye based fluorescence microscopy; assay type: functional, cell-based; details: Homo sapiens
[8] = system: HUVEC; assay: Reduction in LDH release in H2O2-treated HUVEC at 0.5 to 50 uM pre-incubated for 24 hrs before H2O2 stimulation for 2 hrs; assay type: functional, cell-based; details: Homo sapiens
[9] = system: HUVEC; assay: Increase in nitric oxide secretion in H2O2-treated HUVEC at 0.5 to 50 uM pre-incubated for 24 hrs before H2O2 stimulation for 2 hrs; assay type: functional, cell-based; details: Homo sapiens
[10] = system: HUVEC; assay: Cytoprotective activity in H2O2-treated HUVEC assessed as cell survival at 0.5 uM pre-incubated for 24 hrs before H2O2 stimulation for 2 hrs by MTT assay (reference value: 66.91%); assay type: functional; details: Homo sapiens, read-out: Survival
[11] = system: HUVEC; assay: Antioxidant activity in HUVEC assessed as suppression of ROS production pre-incubated for 24 hrs before H2O2 stimulation for 2 hrs by DCF dye based fluorescence microscopy; assay type: functional, cell-based; details: Homo sapiens
[12] = system: HUVEC; assay: Cytoprotective activity in H2O2-treated HUVEC assessed as reduction in H2O2-induced cell death at 0.5 to 50 uM pre-incubated for 24 hrs before H2O2 stimulation for 2 hrs by MTT assay; assay type: functional, cell-based; details: Homo sapiens
[13] = system: HUVEC; assay: Increase in SOD activity in H2O2-treated HUVEC at 0.5 to 50 uM pre-incubated for 24 hrs before H2O2 stimulation for 2 hrs; assay type: functional, cell-based; details: Homo sapiens
[14] = system: HUVEC; assay: Antioxidant activity in HUVEC assessed as suppression of ROS production by measuring fluorescent intensity index at 10 uM pre-incubated for 24 hrs before H2O2 stimulation for 2 hrs by DCF dye based fluorimetric assay; assay type: functional, Homo sapiens

With `C=C[C@]1(C)CC[C@@H](C(=C)C)C[C@H]1C(=C)COC(=O)c1ccc(C)cc1` the Flu intensity [1] was 1.322.

`C=C[C@]1(C)CC[C@@H](C(=C)C)C[C@H]1C(=C)COC(=O)CCC` showed a Flu intensity [1] of 1.338.

In the case of `C=C[C@]1(C)CC[C@@H](C(=C)COC(=O)c2ccccc2Cl)C[C@H]1C(=C)C`, the Flu intensity [1] is reported as 1.388.

With `C=C[C@]1(C)CC[C@@H](C(=C)C)C[C@H]1C(=C)COC(=O)c1ccccc1C(=O)O` the Flu intensity [1] was 1.415.

Compound VITAMIN E has a Flu intensity [2] of 1.23.

`C=C[C@]1(C)CC[C@@H](C(=C)C)C[C@H]1C(=C)COC(=O)c1ccc([N+](=O)[O-])cc1` gave a Flu intensity [1] of 1.393.

With `C=C[C@]1(C)CC[C@@H](C(=C)COC(=O)CCC(=O)OCC(=C)[C@@H]2CC[C@@](C)(C=C)[C@H](C(=C)C)C2)C[C@H]1C(=C)C` the Activity [3] was “<= 50%”, the Flu intensity [1] was 1.092 and the viability at 50 µM [4] was 100%. For the same compound, the viability at 24 h, up to 50 µM [5] was > 92%, the inhibition [6] was “Dose-dependent effect” and the inhibition [7] was “Dose-dependent effect”. For the same compound, the inhibition [8] was “Dose-dependent effect”, the Activity [9] was “Dose-dependent effect” and the viability at 0.5 µM [10] was 81.2%. For the same compound, the inhibition [11] was “Dose-dependent effect”, the Activity [12] was “Dose-dependent effect” and the Activity [13] was “Dose-dependent effect”.

Work on `C=C[C@]1(C)CC[C@@H](C(=C)C)C[C@H]1C(=C)COC(=O)c1ccncc1` yielded a Flu intensity [1] of 1.411.

`C=C[C@]1(C)CC[C@@H](C(=C)C)C[C@H]1C(=C)COC(C)=O` showed a Flu intensity [1] of 1.322.

`C=C[C@]1(C)CC[C@@H](C(=C)COC(=O)CC)C[C@H]1C(=C)C` gave a Flu intensity [1] of 1.322.

`C=C[C@]1(C)CC[C@@H](C(=C)CO)C[C@H]1C(=C)C` showed a Flu intensity [1] of 1.291.

For `C=C[C@]1(C)CC[C@@H](C(=C)COC(=O)CCC)C[C@H]1C(=C)C`, the Flu intensity [1] was 1.365.

Work on `C=C[C@]1(C)CC[C@@H](C(=C)COC(=O)c2ccccc2C(=O)O)C[C@H]1C(=C)C` yielded a Flu intensity [1] of 1.416.

Compound `C=C[C@]1(C)CC[C@@H](C(=C)COC(=O)c2ccccc2O)C[C@H]1C(=C)C` has a Flu intensity [1] of 1.286.

In the case of `C=C[C@]1(C)CC[C@@H](C(=C)COC(=O)c2ccc(Cl)cc2)C[C@H]1C(=C)C`, the Flu intensity [1] is reported as 1.324.

`C=C[C@]1(C)CC[C@@H](C(=C)C)C[C@H]1C(=C)COC(=O)c1ccccc1O` showed a Flu intensity [1] of 1.376.

`C=C[C@]1(C)CC[C@@H](C(=C)C)C[C@H]1C(=C)COC(=O)c1cccc(F)c1` showed a Flu intensity [1] of 1.39.

For `C=C[C@]1(C)CC[C@@H](C(=C)C)C[C@H]1C(=C)COC(=O)c1ccco1`, the Flu intensity [1] was 1.39.

For `C=C[C@]1(C)CC[C@@H](C(=C)COC(=O)c2ccccc2C(=O)OCC(=C)[C@@H]2CC[C@@](C)(C=C)[C@H](C(=C)C)C2)C[C@H]1C(=C)C`, the Activity [3] was “<= 50%”, the Flu intensity [1] was 1.114 and the viability at 50 µM [4] was 97.9%. The viability at 24 h, up to 50 µM [5] was > 92%, the inhibition [6] was “Dose-dependent effect” and the inhibition [7] was “Dose-dependent effect”. The inhibition [8] was “Dose-dependent effect”, the Activity [9] was “Dose-dependent effect” and the inhibition [11] was “Dose-dependent effect”. For the same compound, the Activity [12] was “Dose-dependent effect” and the Activity [13] was “Dose-dependent effect”.

With `C=C[C@]1(C)CC[C@@H](C(=C)COC(=O)c2ccccc2)C[C@H]1C(=C)C` the Flu intensity [1] was 1.355.

With `C=C[C@]1(C)CC[C@@H](C(=C)C)C[C@H]1C(=C)CO` the Flu intensity [1] was 1.37.

Compound `C=C[C@]1(C)CC[C@@H](C(=C)COC(=O)c2ccc(OC)cc2)C[C@H]1C(=C)C` has a Flu intensity [1] of 1.429.

`C=C[C@]1(C)CC[C@@H](C(=C)COC(=O)c2cccnc2)C[C@H]1C(=C)C` gave a Flu intensity [1] of 1.524.

`C=C[C@]1(C)CC[C@@H](C(=C)C)C[C@H]1C(=C)COC(=O)c1ccccc1` showed a Flu intensity [1] of 1.445.

`C=C[C@]1(C)CC[C@@H](C(=C)COC(=O)c2cccc(F)c2)C[C@H]1C(=C)C` showed a Flu intensity [1] of 1.39.

`C=C[C@]1(C)CC[C@@H](C(=C)C)C[C@H]1C(=C)COC(=O)CCC(=O)OCC(=C)[C@@H]1C[C@H](C(=C)C)CC[C@@]1(C)C(=C)C` gave a Flu intensity [1] of 1.123.

For `C=C[C@]1(C)CC[C@@H](C(=C)C)C[C@H]1C(=C)COC(=O)CCC(=O)O`, the Flu intensity [1] was 1.468.

With `C=C[C@]1(C)CC[C@@H](C(=C)C)C[C@H]1C(=C)COC(=O)c1ccccc1C(=O)OCC(=C)[C@@H]1C[C@H](C(=C)C)CC[C@@]1(C)C(=C)C` the Flu intensity [1] was 1.168.

In the case of `C=C[C@]1(C)CC[C@@H](C(=C)COC(=O)c2ccc(C)cc2)C[C@H]1C(=C)C`, the Flu intensity [1] is reported as 1.411.

With `C=C[C@]1(C)CC[C@@H](C(=C)C)C[C@H]1C(=C)COC(=O)c1ccc(F)cc1` the Flu intensity [1] was 1.306.

`C=C[C@]1(C)CC[C@@H](C(=C)C)C[C@H]1C(=C)COC(=O)c1ccccc1Cl` showed a Flu intensity [1] of 1.443.

`C=C[C@]1(C)CC[C@@H](C(=C)C)C[C@H]1C(=C)COC(=O)c1ccc(OC)cc1` gave a Flu intensity [1] of 1.387.

Work on `C=C[C@]1(C)CC[C@@H](C(=C)COC(=O)c2ccco2)C[C@H]1C(=C)C` yielded a Flu intensity [1] of 1.488.

`C=C[C@]1(C)CC[C@@H](C(=C)C)C[C@H]1C(=C)COC(=O)CC` showed a Flu intensity [1] of 1.383.

With `C=C[C@]1(C)CC[C@@H](C(=C)C)C[C@H]1C(=C)C` the Flu intensity [1] was 1.281 and the Flu intensity [14] was 1.23.

`C=C[C@]1(C)CC[C@@H](C(=C)COC(=O)c2ccc([N+](=O)[O-])cc2)C[C@H]1C(=C)C` showed a Flu intensity [1] of 1.304.

`C=C[C@]1(C)CC[C@@H](C(=C)COC(=O)c2ccc(F)cc2)C[C@H]1C(=C)C` gave a Flu intensity [1] of 1.417.

In the case of `C=C[C@]1(C)CC[C@@H](C(=C)COC(C)=O)C[C@H]1C(=C)C`, the Flu intensity [1] is reported as 1.391.

`C=C[C@]1(C)CC[C@@H](C(=C)C)C[C@H]1C(=C)COC(=O)c1ccc(Cl)cc1` gave a Flu intensity [1] of 1.458.

`C=C[C@]1(C)CC[C@@H](C(=C)C)C[C@H]1C(=C)COC(=O)c1cccnc1` gave a Flu intensity [1] of 1.397.

For `C=C[C@]1(C)CC[C@@H](C(=C)COC(=O)CCC(=O)O)C[C@H]1C(=C)C`, the Flu intensity [1] was 1.403.

In the case of `C=C[C@]1(C)CC[C@@H](C(=C)COC(=O)c2ccncc2)C[C@H]1C(=C)C`, the Flu intensity [1] is reported as 1.447.
